Measurements from US9157087B2, “Inducible plant promoters and the use thereof” (University of Tennessee Research Foundation, priority 2012, dated 2015).

Tested on: transgenic soybean hairy roots
Test: Inducibility of ppor RFP reporter by chemical treatments (SA, ethephon, MeJA) in transgenic soybean hairy roots
Format: cell-based, soybean line TN02-275
Conditions: 4 mg/ml ethephon (ethylene releasing chemical), 3 days; listed as Promoter 2.3

## ATATAATTAAGT (listed as DNA, chemistry not fully specified) [Motif 2.3, 12 bp SCN-inducible promoter motif, tested as tetramerized repeat 5′ of a minimal CaMV 35S promoter]
  Inducibility by Effectors ERE: induced to a much lower degree
